Data from US10725042B2, “Methods of diagnosing and treating cancer” (Case Western Reserve University, priority 2012, dated 2020).

Experiments:
UNG−/− MEFs = conditions: treated UNG−/− MEFs; cited from earlier work
H1299/PR-1 cells = assay: Colony survival assay, H1299/PR-1 pemetrexed-resistant subline; format: cell-based, human; conditions: PR-1 and PR-2 cells
Procedure: (§1) For cells in suspension, colony survival was determined by crystal violet staining of colonies formed after 10-day exposure of 5×10^3 cells to pemetrexed in soft agar. For adherent cells, colony survival was determined by methylene blue staining of colonies formed after 10-day exposure of 100 cells to pemetrexed in 6-well culture dishes. Only colonies containing ≥50 cells were counted. Data points represent percent of colonies relative to untreated control averaged over 3 experiments.
H1299 cells were exposed to step-wise increasing concentrations of pemetrexed over a period of 4 months. UNG expression was monitored in the bulk population at 2, 8, 12 and 16 weeks prior to administration of the induction dosage and at 24 weeks in a population of bulk chronically exposed cells that had been without pemetrexed for 8 weeks. H1299 cells capable of growth in 50 nM pemetrexed selection pressure were subcloned by limiting dilution in 96 well plates. Independent sublines were designated H1299/PR-1 and H1299/PR-2.

[1] = test system: uracil in DNA of UDG−/− cells; assay: Uracil in DNA by HPLC/MS/MS, UDG−/− cells; format: cell-based, human; conditions: UDG−/− cells; drug 10 μM, 6-72 hr
Procedure: UDG^−/− and UDG^+/+ cells were exposed to pemetrexed (10 μM) or 5-fluorouracil (10 μM) for 6, 24, 48 and 72 hrs. At indicated time points, cells were harvested and genomic DNA was extracted by phenol/chloroform. Forty μg of DNA were incubated with 10 U of purified UDG (New England Biolabs) in 60 μL of reaction buffer at 37° C. for 2 hrs. The reaction products were dried at 35° C. in a Turbovap under a stream of nitrogen and reconstituted in 150 μL 90% acetonitrile. The analyte was retained by an Atlantis Hilis Silica analytical column (2.1×100 mm, 3.5 μM) and eluted isocratically by a mixture of 90% acetonitrile and 10% 2.0 mM ammonium formate at a flow rate of 0.2 ml/min. The detection was done by an API 3200 MS/MS mass spectrometer.

DLD1/UDG−/− cells = assay: Colony survival (clonogenic) assay, UDG−/− cells; format: cell-based, human; conditions: 5-FU 0-20 μM, temozolomide 0-1500 μM, cisplatin 0-40 μM
Procedure: Recombinant virus was grown in 293T cells and subsequently used to infect DLD1 cells. Selection of positively transfected clones was achieved by the addition of G418 to the culture medium. A second infection of transfected clones with Cre-recombinase adenovirus caused excision of the neomycin resistance cassette. Dflag cell line was produced by transfection of UDG expression vector in UDG^−/− cells to restore UDG activity.
Tumor cells (500-2000/dish) were plated and treated with pemetrexed (0-400 nM), 5-fluorouracil (0-20 μM), temozolomide (0-1500 μM), or cisplatin (0-40 μM). After 7 days, surviving colonies were stained with methylene blue for 30 min at room temperature and the colonies containing more than 50 cells were counted to generate survival curves.

H1975 66 shUNG cells = assay: Colony survival assay, H1975 66 shUNG cells; format: cell-based, human
Procedure: as §1
UNG directed shRNA and siRNA plasmids were purchased from Origene. Transfection was carried out according to manufacturer specifications. Stably transfected clones (shRNA) were selected with puromycin with subsequent expansion of a well-isolated colony of cells.

cell culture = assay: Tolerance of MX in cell culture; format: cell-based; conditions: MX at 3 mM
[2] = test system: 293t cells expressing the bacteriophage UNG inhibitor Ugi; conditions: treated 293t cells expressing Ugi; cited from earlier work

| Compound | increase in uracil (UNG−/− MEFs) [fold] | cross-resistance of PR-1 and PR-2 cells (H1299/PR-1 cells) | differential sensitivity of UDG−/− vs UDG+/+ cells (DLD1/UDG−/− cells) | cross sensitivity of UNG deficient H1975 cells (H1975 66 shUNG cells) | also measured |
| --- | --- | --- | --- | --- | --- |
| O=c1[nH]cc(F)c(=O)[nH]1 [5-FU, 5-fluorouracil] | 1.5 | cross-resistance | more sensitive | some cross sensitivity | uracil detected in DNA [1]: greater retention of uracil |
| O=c1[nH]c(=O)n([C@H]2C[C@H](O)[C@@H](CO)O2)cc1F [FdUrd] | 1.5 | – | – | – | – |
| CON [MX, methoxyamine] | – | – | – | – | tolerance in cell culture (cell culture): well tolerated |
| N.N.[Cl][Pt][Cl] [cisplatin] | – | not resistant | no significant differential sensitivity | not | – |
| Cc1nc2ccc(CN(C)c3ccc(C(=O)N[C@@H](CCC(=O)O)C(=O)O)s3)cc2c(=O)[nH]1 [raltitrexed] | – | cross-resistance | – | some cross sensitivity | increase in uracil [2]: 8 fold |
| Cc1cn([C@H]2C[C@H](O)[C@@H](CO)O2)c(=O)[nH]c1=O [thymidine] | – | – | – | – | effect of supplemental thymidine on pemetrexed sensitivity (H1975 66 shUNG cells; H1975 shUNG cells, 10 μM thymidine): rescued pemetrexed sensitivity |
